Reference: ChEMBL document CHEMBL4680113, “Tigliane Diterpenoids as a New Type of Antiadipogenic Agents Inhibit GRα-Dexras1 Axis in Adipocytes” (J Med Chem, 2019)
Activity calls are given as the source filed them. No cut-off for these calls is given here.

Experiments:
[1] = system: 3T3-L1; assay: Inhibition of methylprednisolone-induced PPARgamma mRNA expression in mouse 3T3-L1 cells at 1 uM by RT-qPCR analysis; format: functional, cell-based
[2] = system: 3T3-L1; assay: Inhibition of cell differentiation in mouse 3T3-L1 cells assessed as reduction in adipogenic cocktail-induced triglyceride levels at 1 uM incubated for 0 to 3 days by Oil-Red O staining; format: functional, cell-based; settings: time 0-3 day
[3] = system: 3T3-L1; assay: Lipid lowering activity in mouse 3T3-L1 cells assessed as reduction in adipogenic cocktail induced triglyceride levels at 1 uM incubated for 6 days in presence of GR-alpha siRNA by GPO-POD assay; format: functional, cell-based; settings: time 6.0 day
[4] = system: 3T3-L1; assay: Lipid lowering activity in mouse 3T3-L1 cells assessed as reduction in methylprednisolone-induced triglyceride levels at 1 uM incubated for 6 days by GPO-POD assay; format: functional, cell-based; settings: time 6.0 day
[5] = system: 3T3-L1; assay: Inhibition of GR-alpha in mouse 3T3-L1 cells assessed as reduction in adipogenic cocktail-induced Dexras1 mRNA expression at 1 uM incubated for 4 hrs by RT-qPCR analysis; format: cell-based
[6] = system: 3T3-L1; assay: Inhibition of adipogenic cocktail-induced PPARgamma mRNA expression in mouse 3T3-L1 cells incubated for 24 hrs by RT-qPCR analysis; format: functional, cell-based
[7] = system: 3T3-L1; assay: Inhibition of adipogenic cocktail-induced C/EBPalpha mRNA expression in mouse 3T3-L1 cells incubated for 24 hrs by RT-qPCR analysis; format: functional, cell-based
[8] = system: 3T3-L1; assay: Inhibition of adipogenic cocktail-induced C/EBPbeta protein expression in mouse 3T3-L1 cells incubated for 24 hrs by Western blot analysis; format: functional, cell-based
[9] = system: HepG2; assay: Lipid lowering activity in human HepG2 cells assessed as reduction in high-glucose induced triglyceride levels at 1 uM incubated for 6 days in presence of Dexras1 siRNA by GPO-POD assay; format: functional, cell-based; settings: time 6.0 day
[10] = system: 3T3-L1; assay: Inhibition of GR-alpha in mouse 3T3-L1 cells assessed as reduction in methylprednisolone-induced Dexras1 mRNA expression at 1 uM incubated for 4 hrs by RT-qPCR analysis; format: cell-based
[11] = system: 3T3-L1; assay: Inhibition of GR-alpha in mouse 3T3-L1 cells assessed as reduction in adipogenic cocktail-induced Dexras1 mRNA expression incubated for 0.5 to 24 hrs by RT-qPCR analysis; format: cell-based; settings: time 0.5-24 hrs
[12] = system: 3T3-L1; assay: Inhibition of GR-alpha in mouse 3T3-L1 cells assessed as reduction in GR-alpha interaction with C/EBP-beta at 1 uM incubated for 8 hrs by ChIP assay; format: cell-based
[13] = system: 3T3-L1; assay: Inhibition of adipogenic cocktail-induced C/EBPbeta mRNA expression in mouse 3T3-L1 cells incubated for 24 hrs by RT-qPCR analysis; format: functional, cell-based
[14] = system: 3T3-L1; assay: Inhibition of adipogenic cocktail-induced PPARgamma protein expression in mouse 3T3-L1 cells incubated for 24 hrs by Western blot analysis; format: functional, cell-based
[15] = system: 3T3-L1; assay: Inhibition of adipogenic cocktail-induced GR-alpha protein expression in mouse 3T3-L1 cells at 1 to 10 uM incubated for 4 to 24 hrs by Western blot analysis; format: functional, cell-based; settings: dose 1-10 µM, time 4-24 hrs
[16] = system: 3T3-L1; assay: Inhibition of cell differentiation in mouse 3T3-L1 cells assessed as reduction in adipogenic cocktail-induced triglyceride levels at 1 uM incubated for 0 to 9 days by Oil-Red O staining; format: functional, cell-based; settings: time 0-9 day
[17] = system: 3T3-L1; assay: Inhibition of cell differentiation in mouse 3T3-L1 cells assessed as reduction in adipogenic cocktail-induced triglyceride levels at 1 uM incubated for 0 to 6 days by GPO-POD assay; format: functional, cell-based; settings: time 0-6 day

Structure (SMILES)	inhibition [1]	inhibition [2]	inhibition [3]	inhibition [4]	inhibition [5]	inhibition [6]	inhibition [7]	inhibition [8]	inhibition [9]	inhibition [10]	inhibition [11]	inhibition [12]	inhibition [13]	inhibition [14]	inhibition [15]	inhibition [16]	inhibition [17]
CC(=O)O[C@@H]1C(C)=C[C@H]2[C@@H]3C(C)(C)[C@]3(OC(=O)C(C)C)[C@H](OC(=O)c3ccccc3)[C@@H](C)[C@]2(O)[C@@H]2C=C(C)C(=O)[C@@H]12	Active	Active	Active	Active	Active	Dose-dependent effect	Dose-dependent effect	Dose-dependent effect	Active	Active	Dose-dependent effect	Active	Dose-dependent effect	Dose-dependent effect	inactive	inactive	inactive
CC1=C[C@@H]2[C@@H](C1=O)[C@H](O)C(C)=C[C@H]1[C@@H]3C(C)(C)[C@]3(OC(=O)C(C)C)[C@H](OC(=O)c3ccccc3)[C@@H](C)[C@]21O	–	Active	Active	–	–	Dose-dependent effect	Dose-dependent effect	Dose-dependent effect	–	–	Dose-dependent effect	Active	Dose-dependent effect	Dose-dependent effect	inactive	inactive	inactive
